{"source": "ChEMBL document CHEMBL4311959", "about": "“Discovery of a potent p38α/MAPK14 kinase inhibitor: Synthesis, in vitro/in vivo biological evaluation, and docking studies” (Eur J Med Chem, 2019)", "key": {"[1]": {"target": "Mitogen-activated protein kinase 3 (Homo sapiens) (UniProt P27361)", "assay": "Inhibition of human ERK1 at 10 uM using MBP as substrate by [gamma-33P]-ATP assay relative to control"}, "[2]": {"target": "Tyrosine-protein kinase JAK2 (Homo sapiens) (UniProt O60674)", "sequence (O60674 whole entry)": "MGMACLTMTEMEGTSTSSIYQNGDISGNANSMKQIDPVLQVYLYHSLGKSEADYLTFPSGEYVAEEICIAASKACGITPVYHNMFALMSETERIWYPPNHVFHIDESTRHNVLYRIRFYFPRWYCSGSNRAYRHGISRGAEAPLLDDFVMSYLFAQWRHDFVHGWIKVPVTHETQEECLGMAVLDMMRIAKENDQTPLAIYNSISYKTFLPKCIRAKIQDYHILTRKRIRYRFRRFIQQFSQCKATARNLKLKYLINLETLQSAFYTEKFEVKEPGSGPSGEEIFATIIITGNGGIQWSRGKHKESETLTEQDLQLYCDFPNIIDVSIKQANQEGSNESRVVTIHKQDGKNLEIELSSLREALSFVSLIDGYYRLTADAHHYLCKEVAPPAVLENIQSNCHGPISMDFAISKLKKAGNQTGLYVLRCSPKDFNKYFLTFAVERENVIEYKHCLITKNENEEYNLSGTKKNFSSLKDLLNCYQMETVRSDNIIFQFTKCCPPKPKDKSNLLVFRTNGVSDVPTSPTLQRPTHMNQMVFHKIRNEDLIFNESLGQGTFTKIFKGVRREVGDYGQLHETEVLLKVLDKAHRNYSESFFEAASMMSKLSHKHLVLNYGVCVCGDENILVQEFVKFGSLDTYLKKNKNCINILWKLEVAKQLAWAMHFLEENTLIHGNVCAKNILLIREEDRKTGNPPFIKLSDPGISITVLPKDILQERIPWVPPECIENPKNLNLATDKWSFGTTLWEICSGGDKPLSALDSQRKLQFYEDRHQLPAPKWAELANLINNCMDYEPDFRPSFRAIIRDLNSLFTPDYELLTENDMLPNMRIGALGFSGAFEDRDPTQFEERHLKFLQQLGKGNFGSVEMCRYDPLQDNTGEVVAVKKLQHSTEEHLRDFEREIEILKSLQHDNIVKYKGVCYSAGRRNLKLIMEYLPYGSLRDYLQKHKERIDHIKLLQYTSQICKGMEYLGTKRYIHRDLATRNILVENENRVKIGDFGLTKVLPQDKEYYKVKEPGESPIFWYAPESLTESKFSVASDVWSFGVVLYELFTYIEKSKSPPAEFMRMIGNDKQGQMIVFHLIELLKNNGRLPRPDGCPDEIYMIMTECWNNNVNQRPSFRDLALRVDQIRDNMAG", "assay": "Inhibition of human JAK2 at 10 uM using poly[Glu:Tyr] (4:1) as substrate by [gamma-33P]-ATP assay relative to control"}, "[3]": {"target": "Mitogen-activated protein kinase 11 (Homo sapiens) (UniProt Q15759)", "sequence (Q15759 whole entry)": "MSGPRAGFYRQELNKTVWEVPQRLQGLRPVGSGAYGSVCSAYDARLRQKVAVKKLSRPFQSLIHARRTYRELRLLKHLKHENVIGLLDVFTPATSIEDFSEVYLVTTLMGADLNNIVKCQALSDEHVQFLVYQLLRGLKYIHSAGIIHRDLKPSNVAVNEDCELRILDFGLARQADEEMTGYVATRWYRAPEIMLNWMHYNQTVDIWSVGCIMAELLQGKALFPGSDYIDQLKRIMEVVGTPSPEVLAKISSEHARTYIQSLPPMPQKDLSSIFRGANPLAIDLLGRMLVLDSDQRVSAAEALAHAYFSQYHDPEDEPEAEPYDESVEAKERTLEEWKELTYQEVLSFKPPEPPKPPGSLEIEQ", "assay": "Inhibition of human p38beta at 10 uM using MBP as substrate by [gamma-33P]-ATP assay relative to control"}, "THP-1": {"system": "THP-1", "assay": "Inhibition of LPS-induced TNFalpha production in human THP1 cells incubated for 1 hr followed by LPS stimulation and measured after 4 hrs by TR-FRET method", "format": "functional, cell-based"}, "[4]": {"target": "Mitogen-activated protein kinase 8 (Homo sapiens) (UniProt P45983)", "assay": "Inhibition of human JNK1 at 10 uM using ATF2 as substrate by [gamma-33P]-ATP assay relative to control"}, "[5]": {"assay": "Half life in Sprague-Dawley rat at 10 mg/kg, iv measured for each 30 mins by LC-MS/MS analysis", "format": "ADME, organism-based", "conditions": "in vivo"}, "[6]": {"assay": "AUClast in Sprague-Dawley rat at 10 mg/kg, po measured for each 30 mins by LC-MS/MS analysis", "format": "ADME, organism-based", "design": "dose 10 mg/kg, route oral, time 0 - last", "conditions": "in vivo"}, "[7]": {"target": "Insulin receptor (Homo sapiens) (UniProt P06213)", "assay": "Inhibition of human IR at 10 uM using poly[Glu:Tyr] (4:1) as substrate by [gamma-33P]-ATP assay relative to control"}, "[8]": {"target": "RAF proto-oncogene serine/threonine-protein kinase (Homo sapiens, UniProt P04049)", "assay": "Inhibition of human RAF1 using MEK1 as substrate by [gamma-33P]-ATP assay"}, "[9]": {"target": "Receptor tyrosine-protein kinase erbB-2 (Homo sapiens) (UniProt P04626)", "assay": "Inhibition of human ERBB2 at 10 uM using poly[Glu:Tyr] (4:1) as substrate by [gamma-33P]-ATP assay relative to control"}, "[10]": {"assay": "Stability in rat plasma assessed as remaining compound at 10 uM incubated for 30 mins by LC-MS analysis", "format": "ADME, cell-free", "conditions": "read-out: Stability"}, "[11]": {"target": "ALK tyrosine kinase receptor (Homo sapiens) (UniProt Q9UM73)", "sequence (Q9UM73 19-1620 limits assumed)": "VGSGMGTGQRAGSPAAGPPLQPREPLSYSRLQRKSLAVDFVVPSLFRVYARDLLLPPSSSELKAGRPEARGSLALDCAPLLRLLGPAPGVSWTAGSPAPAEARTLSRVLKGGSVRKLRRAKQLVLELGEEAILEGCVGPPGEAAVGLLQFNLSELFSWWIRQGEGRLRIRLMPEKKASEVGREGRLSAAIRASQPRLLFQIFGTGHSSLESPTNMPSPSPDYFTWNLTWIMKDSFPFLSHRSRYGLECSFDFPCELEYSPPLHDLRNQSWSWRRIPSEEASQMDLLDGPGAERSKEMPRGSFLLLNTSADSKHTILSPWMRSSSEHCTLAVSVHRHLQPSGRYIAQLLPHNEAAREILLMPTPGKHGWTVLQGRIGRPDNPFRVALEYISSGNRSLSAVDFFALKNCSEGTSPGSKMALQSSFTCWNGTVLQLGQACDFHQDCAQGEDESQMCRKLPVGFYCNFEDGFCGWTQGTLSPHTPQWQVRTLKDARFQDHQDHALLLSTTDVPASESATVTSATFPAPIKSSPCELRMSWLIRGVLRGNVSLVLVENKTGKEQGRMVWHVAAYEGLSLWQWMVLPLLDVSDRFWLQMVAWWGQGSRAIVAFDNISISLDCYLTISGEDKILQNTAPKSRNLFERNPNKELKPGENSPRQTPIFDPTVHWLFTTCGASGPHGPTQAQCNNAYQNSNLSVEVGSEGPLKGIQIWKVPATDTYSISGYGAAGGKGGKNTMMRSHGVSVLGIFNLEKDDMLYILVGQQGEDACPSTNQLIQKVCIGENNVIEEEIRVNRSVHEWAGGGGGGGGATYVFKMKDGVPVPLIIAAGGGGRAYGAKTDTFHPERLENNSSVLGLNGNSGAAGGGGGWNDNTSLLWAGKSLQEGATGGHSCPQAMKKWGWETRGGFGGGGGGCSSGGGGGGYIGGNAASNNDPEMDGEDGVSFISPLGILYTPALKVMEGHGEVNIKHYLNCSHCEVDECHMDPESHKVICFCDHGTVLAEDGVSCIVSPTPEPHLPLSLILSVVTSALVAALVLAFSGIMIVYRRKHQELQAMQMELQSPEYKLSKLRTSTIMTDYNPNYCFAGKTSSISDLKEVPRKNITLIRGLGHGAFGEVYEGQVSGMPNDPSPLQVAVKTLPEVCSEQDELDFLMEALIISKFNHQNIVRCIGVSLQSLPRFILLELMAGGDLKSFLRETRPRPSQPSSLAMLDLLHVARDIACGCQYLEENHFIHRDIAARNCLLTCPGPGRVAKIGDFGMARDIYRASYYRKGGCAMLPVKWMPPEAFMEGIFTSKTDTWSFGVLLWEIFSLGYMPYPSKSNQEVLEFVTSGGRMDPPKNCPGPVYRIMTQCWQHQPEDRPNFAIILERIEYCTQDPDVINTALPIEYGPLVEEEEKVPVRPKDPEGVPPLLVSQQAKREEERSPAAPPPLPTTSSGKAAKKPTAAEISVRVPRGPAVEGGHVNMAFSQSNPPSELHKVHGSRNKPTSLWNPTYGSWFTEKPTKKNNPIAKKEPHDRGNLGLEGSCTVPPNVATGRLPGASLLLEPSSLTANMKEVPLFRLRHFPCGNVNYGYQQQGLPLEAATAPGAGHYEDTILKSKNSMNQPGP", "assay": "Inhibition of human ALK at 10 uM using poly[Glu:Tyr] (4:1) as substrate by [gamma-33P]-ATP assay relative to control"}, "Homo sapiens": {"species": "Homo sapiens", "assay": "Selectivity index, ratio of IC50 for human RAF1 to IC50 for human p38alpha"}, "[12]": {"target": "RAC-alpha serine/threonine-protein kinase (Homo sapiens) (UniProt P31749)", "assay": "Inhibition of human AKT1 at 10 uM using KGSGSGRPRTSSFAEG as substrate by [gamma-33P]-ATP assay relative to control"}, "[13]": {"target": "Serine/threonine-protein kinase B-raf (Homo sapiens) (UniProt P15056)", "assay": "Inhibition of human BRAF at 10 uM using MEK1 (K97R) as substrate by [gamma-33P]-ATP assay relative to control"}, "[14]": {"assay": "Stability in human plasma assessed as remaining compound at 10 uM incubated for 120 mins by LC-MS analysis", "format": "ADME, cell-free", "conditions": "read-out: Stability"}, "[15]": {"target": "Cyclin-dependent kinase 2/cyclin E1 (Homo sapiens) (UniProt P24864+P24941)", "assay": "Inhibition of human CDK2/cyclin-E at 10 uM using histone H1 as substrate by [gamma-33P]-ATP assay relative to control", "format": "protein-complex assay"}, "[16]": {"target": "Aurora kinase A (Homo sapiens) (UniProt O14965)", "assay": "Inhibition of human Aurora A at 10 uM using [H-LRRASLG] as substrate by [gamma-33P]-ATP assay relative to control"}, "[17]": {"target": "Macrophage colony-stimulating factor 1 receptor (Homo sapiens) (UniProt P07333)", "assay": "Inhibition of human FMS at 10 uM using poly[Glu:Tyr] (4:1) as substrate by [gamma-33P]-ATP assay relative to control"}, "[18]": {"target": "Tyrosine-protein kinase Tec (Homo sapiens) (UniProt P42680)", "sequence (P42680 whole entry)": "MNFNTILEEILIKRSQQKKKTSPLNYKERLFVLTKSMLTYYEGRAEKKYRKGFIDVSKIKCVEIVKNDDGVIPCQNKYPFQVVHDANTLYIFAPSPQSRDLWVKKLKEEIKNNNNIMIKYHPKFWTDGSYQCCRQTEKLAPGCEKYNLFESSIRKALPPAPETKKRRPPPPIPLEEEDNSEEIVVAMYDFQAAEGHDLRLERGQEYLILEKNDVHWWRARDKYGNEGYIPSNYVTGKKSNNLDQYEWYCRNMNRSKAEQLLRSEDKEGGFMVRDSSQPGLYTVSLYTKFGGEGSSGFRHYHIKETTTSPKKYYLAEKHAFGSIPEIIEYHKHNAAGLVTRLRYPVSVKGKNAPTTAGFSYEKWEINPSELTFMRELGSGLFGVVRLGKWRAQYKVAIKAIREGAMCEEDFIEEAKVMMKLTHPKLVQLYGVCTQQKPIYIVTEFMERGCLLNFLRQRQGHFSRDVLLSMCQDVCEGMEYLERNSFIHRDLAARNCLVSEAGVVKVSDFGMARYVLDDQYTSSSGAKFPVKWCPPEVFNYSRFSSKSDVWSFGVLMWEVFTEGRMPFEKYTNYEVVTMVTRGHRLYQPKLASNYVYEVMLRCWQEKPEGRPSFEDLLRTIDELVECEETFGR", "assay": "Inhibition of human TEC at 10 uM using poly[Glu:Tyr] (4:1) as substrate by [gamma-33P]-ATP assay relative to control"}, "[19]": {"target": "Serine/threonine-protein kinase B-raf (Homo sapiens, UniProt P15056, V600E)", "sequence (P15056 2-766 V600E limits assumed)": "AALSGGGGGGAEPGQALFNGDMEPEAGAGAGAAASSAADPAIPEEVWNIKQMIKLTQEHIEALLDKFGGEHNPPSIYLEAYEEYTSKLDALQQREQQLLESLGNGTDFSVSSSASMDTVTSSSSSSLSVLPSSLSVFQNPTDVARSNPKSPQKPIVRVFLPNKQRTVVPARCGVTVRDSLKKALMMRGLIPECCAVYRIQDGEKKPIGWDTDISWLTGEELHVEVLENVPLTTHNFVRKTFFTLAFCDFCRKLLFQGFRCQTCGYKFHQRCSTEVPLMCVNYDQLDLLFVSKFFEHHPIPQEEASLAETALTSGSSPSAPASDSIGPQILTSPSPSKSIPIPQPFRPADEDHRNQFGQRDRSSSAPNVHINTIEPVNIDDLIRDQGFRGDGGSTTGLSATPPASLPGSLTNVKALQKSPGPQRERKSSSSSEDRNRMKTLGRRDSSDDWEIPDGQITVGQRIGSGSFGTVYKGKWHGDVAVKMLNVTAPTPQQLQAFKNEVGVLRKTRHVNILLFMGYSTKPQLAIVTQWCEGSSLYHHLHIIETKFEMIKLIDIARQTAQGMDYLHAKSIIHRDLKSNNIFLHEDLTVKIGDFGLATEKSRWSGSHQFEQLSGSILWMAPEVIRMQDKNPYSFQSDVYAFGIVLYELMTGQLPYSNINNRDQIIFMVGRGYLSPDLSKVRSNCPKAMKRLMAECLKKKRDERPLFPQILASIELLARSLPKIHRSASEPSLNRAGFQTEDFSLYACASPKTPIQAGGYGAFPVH", "assay": "Inhibition of human BRAF V600E mutant using MEK1 as substrate by […]-ATP assay"}, "[20]": {"target": "Proto-oncogene tyrosine-protein kinase ROS (Homo sapiens) (UniProt P08922)", "assay": "Inhibition of human ROS at 10 uM using KKKSPGEYVNIEFG as substrate by [gamma-33P]-ATP assay relative to control"}, "[21]": {"assay": "Half life in Sprague-Dawley rat at 10 mg/kg, po measured for each 30 mins by LC-MS/MS analysis", "format": "ADME, organism-based", "conditions": "in vivo"}, "[22]": {"target": "Dual specificity mitogen-activated protein kinase kinase 6 (Homo sapiens) (UniProt P52564)", "sequence (P52564 whole entry)": "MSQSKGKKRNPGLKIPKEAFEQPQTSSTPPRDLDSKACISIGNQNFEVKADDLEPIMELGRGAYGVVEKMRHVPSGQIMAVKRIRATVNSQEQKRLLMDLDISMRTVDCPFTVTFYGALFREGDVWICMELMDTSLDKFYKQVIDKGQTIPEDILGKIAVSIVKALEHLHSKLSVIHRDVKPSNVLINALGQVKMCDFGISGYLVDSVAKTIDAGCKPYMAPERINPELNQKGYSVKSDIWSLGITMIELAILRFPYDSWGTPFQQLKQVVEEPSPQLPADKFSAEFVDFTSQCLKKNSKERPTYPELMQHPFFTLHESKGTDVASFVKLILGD", "assay": "Inhibition of human MKK6 at 10 uM using p38alpha as substrate by [gamma-33P]-ATP assay relative to control"}, "[23]": {"target": "Proto-oncogene tyrosine-protein kinase Src (Homo sapiens) (UniProt P12931)", "assay": "Inhibition of human c-SRC at 10 uM using poly[Glu:Tyr] (4:1) as substrate by [gamma-33P]-ATP assay relative to control"}, "[24]": {"target": "Hepatocyte growth factor receptor (Homo sapiens, UniProt P08581)", "assay": "Inhibition of human c-MET using KKKSPGEYVNIEFG as substrate by [gamma-33P]-ATP assay"}, "[25]": {"target": "Mitogen-activated protein kinase 14 (Homo sapiens, UniProt Q16539)", "assay": "Inhibition of recombinant Nanoluc-tagged p38alpha (unknown origin) expressed in HEK293 cells incubated for 2 to 3 mins by NanoBRET assay", "format": "cell-based"}}, "data": [{"smiles": "COc1ccc(-c2nn(-c3cccc(NC(=O)c4cccc(C(F)(F)F)c4)c3)cc2-c2ccncc2)cc1Cl", "values": [{"measurement": "inhibition", "setting": "[1]", "result": -1.3, "unit": "%"}, {"measurement": "inhibition", "setting": "[2]", "result": -9.88, "unit": "%"}, {"measurement": "inhibition", "setting": "[3]", "result": 63.2, "unit": "%"}, {"measurement": "IC50", "setting": "THP-1", "result": 58, "unit": "nM"}, {"measurement": "inhibition", "setting": "[4]", "result": 28.2, "unit": "%"}, {"measurement": "half-life", "setting": "[5]", "result": 6.4, "unit": "h"}, {"measurement": "AUC(0-t) at 0.5 h", "setting": "[6]", "result": 164, "unit": "ng·h/mL"}, {"measurement": "inhibition", "setting": "[7]", "result": -0.36, "unit": "%"}, {"measurement": "IC50", "setting": "[8]", "result": 336, "unit": "nM"}, {"measurement": "inhibition", "setting": "[9]", "result": 20.4, "unit": "%"}, {"measurement": "remaining at 0.5 h, 10 µM", "setting": "[10]", "result": 100, "unit": "%"}, {"measurement": "inhibition", "setting": "[11]", "result": 3.5, "unit": "%"}, {"measurement": "Ratio IC50", "setting": "Homo sapiens", "result": 15.3}, {"measurement": "inhibition", "setting": "[12]", "result": 7.06, "unit": "%"}, {"measurement": "inhibition", "setting": "[13]", "result": 54.4, "unit": "%"}, {"measurement": "remaining at 2 h, 10 µM", "setting": "[14]", "result": 98.4, "unit": "%"}, {"measurement": "inhibition", "setting": "[15]", "result": 2.43, "unit": "%"}, {"measurement": "inhibition", "setting": "[16]", "result": 3.1, "unit": "%"}, {"measurement": "inhibition", "setting": "[17]", "result": 19, "unit": "%"}, {"measurement": "inhibition", "setting": "[18]", "result": -3.79, "unit": "%"}, {"measurement": "IC50", "setting": "[19]", "result": 158, "unit": "nM"}, {"measurement": "inhibition", "setting": "[20]", "result": 5.26, "unit": "%"}, {"measurement": "half-life", "setting": "[21]", "result": 7.3, "unit": "h"}, {"measurement": "inhibition", "setting": "[22]", "result": 29.5, "unit": "%"}, {"measurement": "inhibition", "setting": "[23]", "result": 33.4, "unit": "%"}, {"measurement": "IC50", "setting": "[24]", "result": "> 10000", "unit": "nM"}, {"measurement": "EC50", "setting": "[25]", "result": 520, "unit": "nM"}]}]}
